Series [1] deals with local lymph node reaction. In words: Local lymph node weight and cell count after TDI challenge. The following applies: topical 1a 2% or 6%, diflorasone 0.1% and 0.5%. The series is classed as in vivo, mice. The method, then: Directly after sacrifice, the ear draining lymph node (Ln. auricularis) was prepared and excised. Organ weight was determined by means of an analytical balance (Kern, Balingen, Germany). Single cell suspensions were prepared by means of a glass potter (VWR, Darmstadt, Germany) and cells were counted with a hemocytometer (Neubauer, VWR, Germany).
One of the most undesirable side-effects of corticosteroid administration is immunosuppression, which leads to the inability to effectively address parasitic infection, wound healing and tumor growth. In the current study, the local lymph node reaction after TDI challenge (lymph node weight and cell number) was determined to assess the response of immune organs.

The nature of series [2]: Pharmacokinetic study after a single oral administration to mice. The series is classed as in vivo. The method, then: The aim of the study was to evaluate pharmacokinetic (PK) properties of five different batches including anhydrates and monohydrates of the crystal form A of compound 1a (cf. Table 1 in Example 5) after a single oral administration to mice. Three of the forms were anhydrous and two were monohydrates.
Compound 1a was administered as a suspension of 0.5% methyl cellulose (Sigma-Aldrich) in water at a dose of 100 mg/kg (10 ml/kg) by oral gavage to non-fasted female Balb/c mice (n=3).
Blood was collected by decapitation at 0.5, 1, 2, 4, 8, 12, 24, and 48 h after administration. Blood plasma was isolated by centrifugation at 4° C. (20,000×g for 10 min), transferred to microtubes containing lithium-heparin and frozen in aliquots at −70° C. until assayed by mass-spectrometry. Mean plasma concentration-time profiles (semi-logarithmic) of the five polymorphic crystal forms of compound 1a are shown in FIG. 6.
For PK evaluation, summary statistics and plotting of concentration/time curves, all values below the lower limit of quantification (LLOQ) were set to zero.

The test system of a further series is RBL-2H3 cells. In words: Inhibition of mast cell degranulation (β-hexosaminidase release). The series is classed as cell-based. The following applies: Rattus norvegicus, IgE-sensitized RBL-2H3 cells, 1 h with compound, antigen (DNP-HSA) 15 min. The source says:
Mast cells are key effector cells involved in allergic and inflammatory diseases, and the Rat Basophilic Leukemia clone 2H3 (RBL-2H3) cell line is a commonly used model of allergen dependent immune modulator release (degranulation) in mast cells. On their surface, they express the high affinity receptor for IgE (FcεRI). Upon binding of antigen-specific IgE to the receptor, cells become sensitized to the IgE specific antigen (allergen). When IgE-sensitized cells then encounter multivalent antigen, the antigen clusters IgE-FcεRI complexes and initiates a signal transduction cascade that leads to degranulation, that is, the release of inflammatory mediators, such as cytokines, eicosanoids, histamine and enzymes. The assay can be used as a screening method to identify immune-modulating compounds, in particular compounds useful in the medical management of allergic and inflammatory diseases and asthma, β-hexosaminidase was previously shown to be released with the same kinetics as histamine (Schwartz et al., J Immunology; 123:1445-1450 (1979)), thus offering a simple means to monitor degranulation. […]
MUG substrate solution, 100 μl, were added to supernatant and lysate samples and plates were incubated 30 min at 37° C. […] Fluorescence was measured at 365 nm excitation and 440 nm emission wavelengths. […]

With `CCCCCCCCCCCCCCCCN(C)CC(O)CS(=O)(=O)O` (stereo not shown) [Compound 1a, 2-hydroxy-3-(N-methylhexadecylammonio)propane-sulfonate], the “local lymph node reaction (lymph node weight and cell number)” value in series [1] is reported as “did not have any impact”. In addition, the tmax in series [2] (female, Balb/c, mouse, plasma, po, 100 mg/kg, female Balb/c mice, single oral 100 mg/kg in 0.5% methylcellulose, plasma, read-out: tmax) fell in the range of 1 to 2 h. For the same compound, the overt toxicity entry in series [2] (single oral 100 mg/kg, regardless of the polymorphic crystal form) is on record as “No overt toxicity”.

Take `CCCCCCCCCCCCN(C)CC(O)CS(=O)(=O)O` (stereo not shown) [Compound 1c, 2-hydroxy-3-(N-methyldodecylammonio)propanesulfonate]: in the series with RBL-2H3 cells, the IC50 (commonly the concentration that gives 50% inhibition) turned out to be 4.1 µM.
